Read-outs that look alike come from different tables or passages of the source.
Columns and labels:
[1] = target: T1, recombinant TgCoq1 (Toxoplasma gondii, UniProt S8EY63); assay: Kinetic parameters of recombinant TgCoq1 with allylic substrates ([4-14C]IPP incorporation); type: biochemical; settings: allylic substrate varied, counter substrate IPP (100 μM)
T1 sequence (S8EY63 152-676): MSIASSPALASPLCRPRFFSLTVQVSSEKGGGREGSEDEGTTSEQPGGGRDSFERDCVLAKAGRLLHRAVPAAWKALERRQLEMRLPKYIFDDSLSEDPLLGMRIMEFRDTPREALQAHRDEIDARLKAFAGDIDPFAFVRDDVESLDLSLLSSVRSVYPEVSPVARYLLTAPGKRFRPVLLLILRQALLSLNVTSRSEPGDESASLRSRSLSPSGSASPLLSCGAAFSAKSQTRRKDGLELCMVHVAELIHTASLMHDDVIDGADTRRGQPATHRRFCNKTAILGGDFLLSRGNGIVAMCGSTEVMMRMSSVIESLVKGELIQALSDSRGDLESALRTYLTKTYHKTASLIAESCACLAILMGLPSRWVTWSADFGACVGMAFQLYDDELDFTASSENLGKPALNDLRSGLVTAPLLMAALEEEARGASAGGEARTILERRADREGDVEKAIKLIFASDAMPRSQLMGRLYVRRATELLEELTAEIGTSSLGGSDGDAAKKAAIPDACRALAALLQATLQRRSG
Protocol: (§1) To investigate the biochemical function of TgCoq1, we cloned the TGGT1_269430 gene in an E. coli expression plasmid, which also includes a C-terminal polyhistidine tag to facilitate the purification of the recombinant protein by affinity chromatography. The activity of the purified protein was determined using allylic substrates and cosubstrates, by measuring the amount of [4-^14C]IPP incorporated into butanol-extractable polyprenyl diphosphates (FPP and GGPP) (Fig. 2A). […] A parallel experiment with the already characterized recombinant Trypanosoma cruzi solanesyl diphosphate synthase ([26]), TcSPPS, known to synthesize a 45-carbon product, is shown in the same TLC (Fig. 2B). With the use of a standard enzymatic method ([26]), the kinetic parameters of the reaction were obtained using various concentrations of the allylic substrates (GPP, FPP, GGPP, and IPP) and keeping the concentration of counter substrates at a saturating level (Table 1). Under these experimental conditions, the enzyme was more efficient with FPP than with GGPP (Fig. 2C) or GPP as the substrate (Table 1).
(§2) Kinetic parameters for the recombinant TgCoq1 were calculated from the activity obtained by varying the concentration of the allylic substrates (GPP, FPP, GGPP, and IPP) and keeping the concentration of counter substrates at a saturating level. The nonlinear regression analysis in Sigma plot 10.0 was used to calculate the Kinetic parameters.
(§3) For the enzymatic activity, a standard protocol for medium/long-chain prenyl diphosphate synthase was followed as described previously ([26]). The enzyme activity was measured by assessing the amount of [4-^14C]IPP incorporated into butanol-extractable polyprenyl diphosphates. The standard assay mixture contained, in a final volume of 100 μl, Tris-HCl (100 mM, pH 7.4), 100 μM of any of the allylic substrates FPP/GGPP/GPP, 1 mM MgCl2, 1 mM DTT, 1% vol/vol Triton X-100, 100 μM [4-^14C]-IPP (1 μCi/μMol), and 500 ng of purified protein. Reaction mixtures were incubated at 37°C for 30 min unless otherwise indicated. The radioactive prenyl products were extracted with 1-butanol and washed with NaCl-saturated water, and activities were calculated from the DPM values.

[2] = system: T. gondii iΔCoq1 (+ATc) mutant; assay: Rescue of the growth defect of the iΔCoq1 (+ATc) mutant by ubiquinones; type: cell-based, Toxoplasma gondii
Protocol: To further validate the role of TgCoq1 in the synthesis of ubiquinone, we tested if supplementing cultures of the iΔCoq1 (+ATc) mutant with various ubiquinones would rescue the growth defect (Fig. 7). Because UQ7 is not commercially available, we tested UQ6, UQ8, and UQ10 and observed a remarkable rescue of the growth of the iΔCoq1 (+ATc) mutant by UQ6 (Fig. 7A).
Experiments on T. gondii tachyzoites were carried out using parasites expressing red fluorescent protein (RFP) ([66]) with the modification described by Recher et al. ([67]). Tachyzoites were maintained in human fibroblasts (hTERT cells). For drug testing and growth assays, parasites were purified by passing them through a 25-gauge needle, followed by filtration through a 3-μm filter. Human fibroblasts were cultured in 96-well black-sided plates for 24 h before the addition of 4,000 fluorescent tachyzoites/well. Fluorescence values were measured for up to 9 days, and both excitation (544 nm) and emission (590 nm) were read from the bottom of the plates in a Molecular Devices plate reader ([46]). The EC50s were calculated using Prism software. The UQ6 experiments were performed using the same protocol as described above. […]

[3] = target: T1, recombinant TgCoq1; assay: biochemical
[4] = target: recombinant TgFPPS (Toxoplasma gondii, UniProt Q197X6); assay: biochemical
Chain of recombinant TgFPPS (Q197X6 entry or part of it): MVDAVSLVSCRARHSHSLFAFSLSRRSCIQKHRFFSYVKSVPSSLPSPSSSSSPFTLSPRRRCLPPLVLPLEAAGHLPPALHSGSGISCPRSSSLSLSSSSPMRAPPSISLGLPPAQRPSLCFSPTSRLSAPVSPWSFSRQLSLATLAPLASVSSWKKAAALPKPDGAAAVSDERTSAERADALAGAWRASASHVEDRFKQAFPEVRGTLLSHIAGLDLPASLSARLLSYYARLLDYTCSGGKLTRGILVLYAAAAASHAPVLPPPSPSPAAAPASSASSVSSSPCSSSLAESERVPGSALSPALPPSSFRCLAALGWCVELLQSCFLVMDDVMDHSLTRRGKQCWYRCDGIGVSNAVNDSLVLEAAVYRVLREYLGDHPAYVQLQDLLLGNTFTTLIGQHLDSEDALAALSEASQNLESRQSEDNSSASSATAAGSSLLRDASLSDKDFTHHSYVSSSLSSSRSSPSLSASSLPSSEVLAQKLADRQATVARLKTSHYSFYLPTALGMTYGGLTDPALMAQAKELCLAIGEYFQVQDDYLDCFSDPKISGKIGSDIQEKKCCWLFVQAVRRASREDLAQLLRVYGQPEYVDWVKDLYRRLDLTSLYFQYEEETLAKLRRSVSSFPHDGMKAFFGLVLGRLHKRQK

[5] = system: T. gondii RH; assay: In vitro growth inhibition of RFP-expressing tachyzoites in hTERT fibroblasts; type: cell-based, Toxoplasma gondii; settings: for IC50 / EC50: Toxoplasma gondii, Fibroblast; for IC50: T. gondii growth in vitro; for EC50: T. gondii RH
Protocol: Experiments on T. gondii tachyzoites were carried out using parasites expressing red fluorescent protein (RFP) ([66]) with the modification described by Recher et al. ([67]). Tachyzoites were maintained in human fibroblasts (hTERT cells). For drug testing and growth assays, parasites were purified by passing them through a 25-gauge needle, followed by filtration through a 3-μm filter. Human fibroblasts were cultured in 96-well black-sided plates for 24 h before the addition of 4,000 fluorescent tachyzoites/well. […] The EC50s were calculated using Prism software. The UQ6 experiments were performed using the same protocol as described above. The parasites were supplemented with 10 μM UQ6.

[6] = system: hTERT cells; assay: Cytotoxicity to hTERT cells (alamarBlue); settings: hTERT cells
Protocol: The cytotoxicity was tested using an alamarBlue assay as described by Recher et al. ([67]).

[7] = substrate: C=C(C)CCO[P@@](=O)(O)OP(=O)(O)O; assay: Kinetic parameters of recombinant TgCoq1 with allylic substrates ([4-14C]IPP incorporation); type: biochemical, Toxoplasma gondii; settings: pH 7.4, 37.0 °C
Protocol: as §1, §2, §3

[8] = substrate: CC(C)=CCC/C(C)=C/CC/C(C)=C/CO[P@@](=O)(O)OP(=O)(O)O; assay: as above; type: biochemical, Toxoplasma gondii; settings: other: allylic substrate varied, counter substrate IPP (100 μM); pH 7.4; 37.0 °C
Protocol: as §1, §2, §3

[9] = at 4X EC50 (concentration in μM in brackets)
[10] = at 10X EC50 (concentration in μM in brackets)
[11] = other: counter substrate FPP (100 μM)
[12] = other: counter substrate GGPP (50 μM)
[13] = other: counter substrate GPP (150 μM)

CC(C)=CCC/C(C)=C/COP(=O)(O)OP(=O)(O)O [GPP, geranyl diphosphate] gave a Kcat [1] of 0.012 ± 0.001 min⁻¹, a Km [1] of 0.88 ± 0.6 µM and a Vmax [1] of 6.16 ± 0.45 nmol/min/mg.

In the case of COC1=C(OC)C(=O)C(C/C=C(\C)CC/C=C(\C)CC/C=C(\C)CC/C=C(\C)CC/C=C(\C)CC/C=C(\C)CC/C=C(\C)CCC=C(C)C)=C(C)C1=O [UQ8, ubiquinone 8], the “rescue of growth of the iΔCoq1 mutant with ATc” value ([2]; 5 μM ubiquinone) is reported as “no rescue”.

Work on CCCCCCCCC(O)(P(=O)(O)O)P(=O)(O)O [BPH-252] yielded an IC50 [3] of 2130 ± 520 nM, an IC50 [4] of 130 ± 50 nM and an IC50 [5] of 850 ± 140 nM.

With COC1=C(OC)C(=O)C(C/C=C(\C)CC/C=C(\C)CC/C=C(\C)CC/C=C(\C)CC/C=C(\C)CCC=C(C)C)=C(C)C1=O [UQ6, Ubiquinone Q6] the “rescue of growth of the iΔCoq1 mutant with ATc” value ([2]; 5 μM ubiquinone) was “rescue” and the “rescue of growth of the iΔCoq1 mutant with ATc” value ([2]; 10 μM ubiquinone) was “rescued”.

In the case of Cc1[nH]c2c(c(=O)c1-c1ccc(Oc3ccc(OC(F)(F)F)cc3)cc1)CCCC2 [JAG-21], the “rescue of growth inhibition by UQ6” value ([5]; 10 μM UQ6 added to the culture) is reported as “not rescued”, the EC50 ([5]; with ubiquinone Q6 (10 μM) in the culture, read-out: EC50 + UQ6) is reported as 70 ± 1 nM and the EC50 ([5]; without UQ6, read-out: EC50) is reported as 49 ± 20 nM. For the same molecule, the “% Inhibition (cytotoxicity)” value [6, 9] was 6.40 ± 5.50% and the “% Inhibition (cytotoxicity)” value [6, 10] was 5.75 ± 4.98%.

CC(C)=CCC/C(C)=C/CC/C(C)=C/CC/C(C)=C/COP(=O)(O)OP(=O)(O)O [GGPP, geranylgeranyl diphosphate] gave a Kcat [1] of 0.165 ± 0.005 min⁻¹, a Km [1] of 14.1 ± 1.43 µM and a Vmax [1] of 82.98 ± 2.51 nmol/min/mg.

In the case of COC1=C(OC)C(=O)C(C/C=C(\C)CC/C=C(\C)CC/C=C(\C)CC/C=C(\C)CC/C=C(\C)CC/C=C(\C)CC/C=C(\C)CC/C=C(\C)CC/C=C(\C)CCC=C(C)C)=C(C)C1=O [UQ10, ubiquinone 10], the “rescue of growth of the iΔCoq1 mutant with ATc” value ([2]; 5 μM ubiquinone) is reported as “no rescue”.

For CCCCCCCCn1cc[n+](CC(P(=O)([O-])O)P(=O)(O)O)c1 (stereo not shown) [BPH-1217], the “% Inhibition (cytotoxicity)” value [6, 9] was 8.01 ± 1.82% and the “% Inhibition (cytotoxicity)” value [6, 10] was 6.19 ± 9.55%.

In the case of CCCCCCCCCCCn1cc[n+](CC(O)(P(=O)([O-])O)P(=O)(O)O)c1 (stereo not shown) [BPH-1236], the “% Inhibition (cytotoxicity)” value [6, 9] is reported as 4.13 ± 1.20% and the “% Inhibition (cytotoxicity)” value [6, 10] is reported as 9.10 ± 2.38%.

For CCCCCCCCCn1cc[n+](CC(O)(P(=O)([O-])O)P(=O)(O)O)c1 (stereo not shown) [BPH-1238], the “% Inhibition (cytotoxicity)” value [6, 9] was 9.77 ± 1.18% and the “% Inhibition (cytotoxicity)” value [6, 10] was 13.37 ± 6.08%.

CCCCCCCCCCCCCCn1cc[n+](CC(P(=O)([O-])O)P(=O)(O)O)c1 (stereo not shown) [BPH-1219] was tested, and the “% Inhibition (cytotoxicity)” value [6, 9] was 3.20 ± 2.89% and the “% Inhibition (cytotoxicity)” value [6, 10] was 8.01 ± 1.82%.

CCCCCCCCCCCCCCCn1cc[n+](CC(O)(P(=O)([O-])O)P(=O)(O)O)c1 (stereo not shown) [BPH-1325] showed an IC50 [3] of 1690 ± 460 nM, an IC50 [4] of 700 ± 60 nM and an IC50 [5] of 1650 ± 890 nM.

B1: recombinant TgCoq1 (Toxoplasma gondii ME49) (protein)
chain: MSIASSPALASPLCRPRFFSLTVQVSSEKGGGREGSEDEGTTSEQPGGGRDSFERDCVLAKAGRLLHRAVPAAWKALERRQLEMRLPKYIFDDSLSEDPLLGMRIMEFRDTPREALQAHRDEIDARLKAFAGDIDPFAFVRDDVESLDLSLLSSVRSVYPEVSPVARYLLTAPGKRFRPVLLLILRQALLSLNVTSRSEPGDESASLRSRSLSPSGSASPLLSCGAAFSAKSQTRRKDGLELCMVHVAELIHTASLMHDDVIDGADTRRGQPATHRRFCNKTAILGGDFLLSRGNGIVAMCGSTEVMMRMSSVIESLVKGELIQALSDSRGDLESALRTYLTKTYHKTASLIAESCACLAILMGLPSRWVTWSADFGACVGMAFQLYDDELDFTASSENLGKPALNDLRSGLVTAPLLMAALEEEARGASAGGEARTILERRADREGDVEKAIKLIFASDAMPRSQLMGRLYVRRATELLEELTAEIGTSSLGGSDGDAAKKAAIPDACRALAALLQATLQRRSG
In the case of B1, the Km [7, 11] is reported as 139.11 ± 17.68 µM, the kcat/Km [7, 11] is reported as 134 M⁻¹ s⁻¹ and the Km [7, 12] is reported as 141.89 ± 35.75 µM. It also gave a kcat/Km [7, 12] of 87.5 M⁻¹ s⁻¹, a Km [7, 13] of 145.48 ± 1.18 µM and a kcat/Km [7, 13] of 6.5 M⁻¹ s⁻¹. The Km [8] was 12.37 ± 1.83 µM and the kcat/Km [8] was 609 M⁻¹ s⁻¹.
